Measurements reported in US11559500B2, “Compositions and formulations for treatment of malignancies” (Neugate Pharma, LLC, priority 2017, dated 2023).

Tested on: malignant primary or metastatic tumors involving the CNS
Assay: Clinical and radiological tumor response (Macdonald criteria), immune modulating regimen in addition to standard chemoradiotherapy
Assay type: in vivo, human
Conditions: CNS melanoma subject, ipilimumab with radiotherapy, before the regimen
Procedure: Subjects used in the larger study were diagnosed with different primary or metastatic tumors involving the central nervous system: glioblastoma, carcinoma, or lymphoma. The oral immunomodulation regimen was offered to subjects in addition to standard therapy.
Samples were collected at scheduled clinic visits. […] Radiology studies were performed as part of standard evaluation.

ipilimumab
Disease course on prior therapy: progressed
